# Tested on: MV-4-11 cells
# Assay: Gene expression microarray analysis (Affymetrix PrimeView) and GSEA
# Type: cell-based, human
# Set-up: RFU PODN (11730768_x_at) / Fold change /veh PODN (11730768_x_at) / RFU LINC00158 (11744669_a_at) / Fold change /veh LINC00158 (11744669_a_at) / RFU DUSP10 (11751237_a_at) / Fold change /veh DUSP10 (11751237_a_at) / RFU ID3 (11757404_x_at) / Fold change /veh ID3 (11757404_x_at) / RFU PLEKHG5 (11737974_s_at) / Fold change /veh PLEKHG5 (11737974_s_at) / RFU LRRC4B (11730491_at) / Fold change /veh LRRC4B (11730491_at) / RFU GIMAP4 (11747438_a_at) / Fold change /veh GIMAP4 (11747438_a_at) / RFU KRT8 (11758183_x_at) / Fold change /veh KRT8 (11758183_x_at) / RFU CNN1 (11734310_a_at) / Fold change /veh CNN1 (11734310_a_at) / RFU VPS37D (11726825_at) / Fold change /veh VPS37D (11726825_at) / RFU C10orf10 (11716522_x_at) / Fold change /veh C10orf10 (11716522_x_at) / RFU KIR2DL2 /// KIR2DL4 /// KIR2DL5A /// KIR2DL5B /// KIR2DS1 /// KIR2DS2 /// KIR2DS3 /// KIR2DS4 /// KIR3DL3 /// KIR3DL3 /// KIR3DS1 (11738374_at) / Fold change /veh KIR2DL2 /// KIR2DL4 /// KIR2DL5A /// KIR2DL5B /// KIR2DS1 /// KIR2DS2 /// KIR2DS3 /// KIR2DS4 /// KIR3DL3 /// KIR3DL3 /// KIR3DS1 (11738374_at) / RFU C1QL1 (11718748_at) / Fold change /veh C1QL1 (11718748_at) / RFU TMPRSS4 (11747572_a_at) / Fold change /veh TMPRSS4 (11747572_a_at) / RFU HAMP (11756126_x_at) / Fold change /veh HAMP (11756126_x_at) / RFU RNFT2 (11725882_a_at) / Fold change /veh RNFT2 (11725882_a_at) / RFU NR4A2 (11747474_a_at) / Fold change /veh NR4A2 (11747474_a_at) / RFU ABCC12 (11746883_a_at) / Fold change /veh ABCC12 (11746883_a_at) / RFU TMEM136 (11760407_x_at) / Fold change /veh TMEM136 (11760407_x_at) / RFU CLDN22 /// WWC2 (11732394_at) / Fold change /veh CLDN22 /// WWC2 (11732394_at) / RFU HLA-DPB1 (11760878_x_at) / Fold change /veh HLA-DPB1 (11760878_x_at) / RFU SPINT1 (11716480_a_at) / Fold change /veh SPINT1 (11716480_a_at) / RFU GAP43 (11754022_s_at) / Fold change /veh GAP43 (11754022_s_at) / RFU A4GNT (11735810_at) / Fold change /veh A4GNT (11735810_at) / RFU PRB3 (11715151_x_at) / Fold change /veh PRB3 (11715151_x_at) / RFU TUBB4B (11761932_at) / Fold change /veh TUBB4B (11761932_at) / RFU CAPN14 (11732068_a_at) / Fold change /veh CAPN14 (11732068_a_at) / RFU TMCC2 (11721928_a_at) / Fold change /veh TMCC2 (11721928_a_at) / RFU IRGQ (11745062_a_at) / Fold change /veh IRGQ (11745062_a_at) / RFU FAM174B (11720279_a_at) / Fold change /veh FAM174B (11720279_a_at) / RFU TMPRSS4 (11748680_a_at) / Fold change /veh TMPRSS4 (11748680_a_at) / RFU FAM212B (11763350_a_at) / Fold change /veh FAM212B (11763350_a_at) / RFU PLEKHG5 (11743358_a_at) / Fold change /veh PLEKHG5 (11743358_a_at) / RFU ZSCAN30 (11745921_a_at) / Fold change /veh ZSCAN30 (11745921_a_at) / RFU CMKLR1 (11741424_a_at) / Fold change /veh CMKLR1 (11741424_a_at) / RFU LOC101060620 /// MAPK8IP1 (11723275_at) / Fold change /veh LOC101060620 /// MAPK8IP1 (11723275_at) / RFU SPTSSB (11747773_x_at) / Fold change /veh SPTSSB (11747773_x_at) / RFU PRSS12 (11739890_at) / Fold change /veh PRSS12 (11739890_at) / RFU BIN1 (11741810_x_at) / Fold change /veh BIN1 (11741810_x_at) / RFU WNT11 (11732464_a_at) / Fold change /veh WNT11 (11732464_a_at) / RFU C10orf10 (11716521_a_at) / Fold change /veh C10orf10 (11716521_a_at) / RFU C5orf56 (11738089_at) / Fold change /veh C5orf56 (11738089_at) / RFU CYB561 (11721691_x_at) / Fold change /veh CYB561 (11721691_x_at) / RFU ANKRD19P (11752326_a_at) / Fold change /veh ANKRD19P (11752326_a_at) / RFU OR2T12 /// OR2T33 /// OR2T8 (11738714_s_at) / Fold change /veh OR2T12 /// OR2T33 /// OR2T8 (11738714_s_at) / RFU VCAN (11748164_a_at) / Fold change /veh VCAN (11748164_a_at) / RFU JSRP1 (11732532_at) / Fold change /veh JSRP1 (11732532_at) / RFU KRTAP10-11 (11738290_x_at) / Fold change /veh KRTAP10-11 (11738290_x_at) / RFU MYO3A (11730013_a_at) / Fold change /veh MYO3A (11730013_a_at) / RFU EBF3 (11725865_a_at) / Fold change /veh EBF3 (11725865_a_at) / RFU CAMK2N1 (11719241_x_at) / Fold change /veh CAMK2N1 (11719241_x_at) / RFU C5orf56 (11738088_a_at) / Fold change /veh C5orf56 (11738088_a_at) / RFU OLFML3 (11715873_a_at) / Fold change /veh OLFML3 (11715873_a_at) / RFU LOC100653217 /// NTM (11731650_a_at) / Fold change /veh LOC100653217 /// NTM (11731650_a_at) / RFU MAPK11 (11762145_a_at) / Fold change /veh MAPK11 (11762145_a_at) / RFU FIZ1 (11724087_x_at) / Fold change /veh FIZ1 (11724087_x_at) / RFU OASL (11726364_x_at) / Fold change /veh OASL (11726364_x_at) / RFU SOX15 (11748057_x_at) / Fold change /veh SOX15 (11748057_x_at) / RFU CD79A (11719716_a_at) / Fold change /veh CD79A (11719716_a_at) / RFU HIST1H1D (11736915_at) / Fold change /veh HIST1H1D (11736915_at) / RFU CASKIN2 (11723855_a_at) / Fold change /veh CASKIN2 (11723855_a_at) / RFU LOC730098 (11760151_x_at) / Fold change /veh LOC730098 (11760151_x_at) / RFU OR4N2 (11742367_at) / Fold change /veh OR4N2 (11742367_at) / RFU PRRT2 (11749266_a_at) / Fold change /veh PRRT2 (11749266_a_at) / RFU SNX32 (11753110_a_at) / Fold change /veh SNX32 (11753110_a_at) / RFU CDHR5 (11726645_a_at) / Fold change /veh CDHR5 (11726645_a_at) / RFU RCAN1 (11760418_a_at) / Fold change /veh RCAN1 (11760418_a_at) / RFU FAM167A (11723789_a_at) / Fold change /veh FAM167A (11723789_a_at) / RFU FAM26E (11764081_at) / Fold change /veh FAM26E (11764081_at) / RFU ISYNA1 (11749810_s_at) / Fold change /veh ISYNA1 (11749810_s_at) / RFU ACY1 (11761880_at) / Fold change /veh ACY1 (11761880_at) / RFU 11764098_at / Fold change /veh 11764098_at / RFU SAMD14 (11745864_x_at) / Fold change /veh SAMD14 (11745864_x_at) / RFU NPB (11741838_a_at) / Fold change /veh NPB (11741838_a_at) / RFU TMPRSS6 (11731388_a_at) / Fold change /veh TMPRSS6 (11731388_a_at) / RFU KRTAP10-2 (11738614_at) / Fold change /veh KRTAP10-2 (11738614_at) / RFU ARHGAP8 /// PRR5-ARHGAP8 (11727945_x_at) / Fold change /veh ARHGAP8 /// PRR5-ARHGAP8 (11727945_x_at) / RFU KRTAP5-7 /// NADSYN1 (11734609_at) / Fold change /veh KRTAP5-7 /// NADSYN1 (11734609_at) / RFU RASL12 (11751679_a_at) / Fold change /veh RASL12 (11751679_a_at) / RFU CDKN2B (11736163_a_at) / Fold change /veh CDKN2B (11736163_a_at) / RFU PRF1 (11729649_at) / Fold change /veh PRF1 (11729649_at) / RFU, ZNF638 /// ZNF638-IT1 / Fold change vs veh, ZNF638 /// ZNF638-IT1 / RFU, PANK3 / Fold change vs veh, PANK3 / RFU, SH3YL1 / Fold change vs veh, SH3YL1 / RFU, ZEB2 / Fold change vs veh, ZEB2 / RFU, NRIP1 / Fold change vs veh, NRIP1 / RFU, PTTG1IP / Fold change vs veh, PTTG1IP / RFU, CAPN2 / Fold change vs veh, CAPN2 / RFU, MED14 / Fold change vs veh, MED14 / RFU, SNORA58 / Fold change vs veh, SNORA58 / RFU, C1orf63 / Fold change vs veh, C1orf63 / RFU, LRRFIP1 / Fold change vs veh, LRRFIP1 / RFU, NDUFAF7 / Fold change vs veh, NDUFAF7 / RFU, SLC12A2 / Fold change vs veh, SLC12A2 / RFU, IBTK / Fold change vs veh, IBTK / RFU, ESF1 / Fold change vs veh, ESF1 / Fold change vs veh, TMEM50B / RFU, TAOK1 / Fold change vs veh, TAOK1 / RFU, ACBD3 / Fold change vs veh, ACBD3 / RFU, TMA16 / Fold change vs veh, TMA16 / RFU, RWDD3 / Fold change vs veh, RWDD3 / RFU, BCAT1 / Fold change vs veh, BCAT1 / RFU, EDEM3 / Fold change vs veh, EDEM3 / RFU, TMEM33 / Fold change vs veh, TMEM33 / RFU, WDR75 / Fold change vs veh, WDR75 / RFU, AHCTF1 / Fold change vs veh, AHCTF1 / RFU, TFRC / Fold change vs veh, TFRC / RFU, ZDHHC17 / Fold change vs veh, ZDHHC17 / RFU, NOM1 / Fold change vs veh, NOM1 / RFU, ARL8B / Fold change vs veh, ARL8B / RFU, ZBTB11 / Fold change vs veh, ZBTB11 / RFU, TAMM41 / Fold change vs veh, TAMM41 / RFU, KIAA1704 /// LOC100996395 / Fold change vs veh, KIAA1704 /// LOC100996395 / RFU, ING1 / Fold change vs veh, ING1 / RFU, TRMT61B / Fold change vs veh, TRMT61B / RFU, FUBP3 / Fold change vs veh, FUBP3 / RFU, TP53 / Fold change vs veh, TP53 / RFU, TNKS2 / Fold change vs veh, TNKS2 / RFU, ZFP14 / Fold change vs veh, ZFP14 / RFU, ACTR2 / Fold change vs veh, ACTR2 / RFU, PPP3R1 / Fold change vs veh, PPP3R1 / RFU, PIK3R1 / Fold change vs veh, PIK3R1 / RFU, HNRNPA1 / Fold change vs veh, HNRNPA1 / RFU, RNF170 / Fold change vs veh, RNF170 / RFU, ZNF28 / Fold change vs veh, ZNF28 / RFU, RNGTT / Fold change vs veh, RNGTT / RFU, OGT / Fold change vs veh, OGT / RFU, BRD1 / Fold change vs veh, BRD1 / RFU, MARS / Fold change vs veh, MARS / RFU, ZNF655 / Fold change vs veh, ZNF655 / RFU, FAHD1 / Fold change vs veh, FAHD1 / RFU, BDP1 / Fold change vs veh, BDP1 / RFU, LRRCC1 / Fold change vs veh, LRRCC1 / RFU, ARID1A / Fold change vs veh, ARID1A / RFU, ZNF146 / Fold change vs veh, ZNF146 / RFU, ZNF330 / Fold change vs veh, ZNF330 / RFU, GPN3 / Fold change vs veh, GPN3 / RFU, C9orf123 / Fold change vs veh, C9orf123 / RFU, N4BP2L2 / Fold change vs veh, N4BP2L2 / RFU, ARFIP1 / Fold change vs veh, ARFIP1 / RFU, FAM179B / Fold change vs veh, FAM179B / RFU, BCL10 / Fold change vs veh, BCL10 / RFU, UHRF1BP1L / Fold change vs veh, UHRF1BP1L / RFU, BET1 / Fold change vs veh, BET1 / RFU, CNOT2 / Fold change vs veh, CNOT2 / RFU, ZNF268 / Fold change vs veh, ZNF268 / Fold change vs veh, ZNF507 / RFU, DGCR2 / Fold change vs veh, DGCR2 / RFU, WDSUB1 / Fold change vs veh, WDSUB1 / Fold change vs veh, HSP90B1 /// MIR3652 / RFU, ADSS / Fold change vs veh, ADSS / RFU, GK / Fold change vs veh, GK / RFU, ZNF148 / Fold change vs veh, ZNF148 / RFU, TAF9 / Fold change vs veh, TAF9 / RFU, SLC1A5 / Fold change vs veh, SLC1A5 / RFU, SLMO2 / Fold change vs veh, SLMO2 / RFU, ABCC4 / Fold change vs veh, ABCC4 / RFU, LOC101060439 /// RAP1B / Fold change vs veh, LOC101060439 /// RAP1B / RFU, RFX7 / Fold change vs veh, RFX7 / RFU, GTPBP10 / Fold change vs veh, GTPBP10 / RFU, CNEP1R1 / Fold change vs veh, CNEP1R1 / RFU, BIVM-ERCC5 /// ERCC5 / Fold change vs veh, BIVM-ERCC5 /// ERCC5 / RFU, ILF3 / Fold change vs veh, ILF3 / RFU 11762660_at / Fold change /veh 11762660_at / RFU VCAN (11757783_s_at) / Fold change /veh VCAN (11757783_s_at) / RFU DDX43 (11728927_at) / Fold change /veh DDX43 (11728927_at) / RFU KRT8 (11758188_x_at) / Fold change /veh KRT8 (11758188_x_at) / RFU NKD1 (11759106_at) / Fold change /veh NKD1 (11759106_at) / RFU SRD5A1 (11742802_a_at) / Fold change /veh SRD5A1 (11742802_a_at) / RFU TPSAB1 /// TPSB2 (11721975_s_at) / Fold change /veh TPSAB1 /// TPSB2 (11721975_s_at) / RFU GSTM3 (11746129_a_at) / Fold change /veh GSTM3 (11746129_a_at) / RFU IL23R (11737362_x_at) / Fold change /veh IL23R (11737362_x_at) / RFU TMEM51 (11727254_a_at) / Fold change /veh TMEM51 (11727254_a_at) / RFU PIWIL2 (11732686_x_at) / Fold change /veh PIWIL2 (11732686_x_at) / RFU ORM1 (11744905_x_at) / Fold change /veh ORM1 (11744905_x_at) / RFU CCDC152 (11743942_at) / Fold change /veh CCDC152 (11743942_at) / RFU ECM1 (11717891_a_at) / Fold change /veh ECM1 (11717891_a_at) / RFU IL23R (11748794_a_at) / Fold change /veh IL23R (11748794_a_at) / RFU TNFAIP8L3 (11732012_x_at) / Fold change /veh TNFAIP8L3 (11732012_x_at) / RFU MBOAT4 (11741988_at) / Fold change /veh MBOAT4 (11741988_at) / RFU 11764193_at / Fold change /veh 11764193_at / RFU TMEM53 (11763286_at) / Fold change /veh TMEM53 (11763286_at) / RFU MAGEB2 (11727129_at) / Fold change /veh MAGEB2 (11727129_at) / RFU TMEM200A (11744735_a_at) / Fold change /veh TMEM200A (11744735_a_at) / RFU CCDC152 (11751479_a_at) / Fold change /veh CCDC152 (11751479_a_at) / RFU FAM211A (11726209_a_at) / Fold change /veh FAM211A (11726209_a_at) / RFU RGS16 (11746705_a_at) / Fold change /veh RGS16 (11746705_a_at) / RFU VCAN (11755009_s_at) / Fold change /veh VCAN (11755009_s_at) / RFU RHOB (11743442_s_at) / Fold change /veh RHOB (11743442_s_at) / RFU RGS16 (11720943_a_at) / Fold change /veh RGS16 (11720943_a_at) / RFU RGS16 (11720944_at) / Fold change /veh RGS16 (11720944_at) / RFU, VPS4B / Fold change vs veh, VPS4B / RFU, CREB1 / Fold change vs veh, CREB1 / RFU, DNAJC13 / Fold change vs veh, DNAJC13 / RFU, GNAQ / Fold change vs veh, GNAQ / RFU, CDK5R1 / Fold change vs veh, CDK5R1 / RFU, ZRANB3 / Fold change vs veh, ZRANB3 / RFU, CUL4A / Fold change vs veh, CUL4A / RFU, CCNY / Fold change vs veh, CCNY / RFU, UFL1 / Fold change vs veh, UFL1 / RFU, COG3 / Fold change vs veh, COG3 / RFU, DIAPH2 / Fold change vs veh, DIAPH2 / RFU, SKA2 / Fold change vs veh, SKA2 / RFU, AFF3 / Fold change vs veh, AFF3 / RFU, LMF1 / Fold change vs veh, LMF1 / RFU, IPO11 / Fold change vs veh, IPO11 / RFU, DFFB / Fold change vs veh, DFFB / RFU, FOXP1 / Fold change vs veh, FOXP1 / RFU, CARD8 / Fold change vs veh, CARD8 / RFU, STRN3 / Fold change vs veh, STRN3 / RFU, ADK / Fold change vs veh, ADK / RFU, RASSF2 / Fold change vs veh, RASSF2 / RFU, WIPF1 / Fold change vs veh, WIPF1 / RFU, LARP1B / Fold change vs veh, LARP1B / RFU, RASA1 / Fold change vs veh, RASA1 / RFU, RB1 / Fold change vs veh, RB1 / RFU, PPFIA1 / Fold change vs veh, PPFIA1 / RFU, MAT2A / Fold change vs veh, MAT2A / RFU, CCT5 / Fold change vs veh, CCT5 / RFU, WDR92 / Fold change vs veh, WDR92 / RFU, CUX1 / Fold change vs veh, CUX1 / RFU, TTC7A / Fold change vs veh, TTC7A / RFU, TMEM135 / Fold change vs veh, TMEM135 / RFU, DEPTOR / Fold change vs veh, DEPTOR / RFU, CPM / Fold change vs veh, CPM / RFU, DNAJB6 / Fold change vs veh, DNAJB6 / RFU, CACNA2D3 / Fold change vs veh, CACNA2D3 / RFU, DTX4 / Fold change vs veh, DTX4 / RFU, TFCP2 / Fold change vs veh, TFCP2 / RFU, GMCL1 /// GMCL1P1 / Fold change vs veh, GMCL1 /// GMCL1P1 / RFU, AEBP2 / Fold change vs veh, AEBP2 / RFU, SNHG1 /// SNORD22 /// SNORD25 /// SNORD26 /// SNORD27 /// SNORD28 /// SNORD29 /// SNORD31 / Fold change vs veh, SNHG1 /// SNORD22 /// SNORD25 /// SNORD26 /// SNORD27 /// SNORD28 /// SNORD29 /// SNORD31 / Fold change (Aza/veh), C12orf56 (ProbeSet 11735607_a_at) / Fold change (ACY-1035/veh), C12orf56 (ProbeSet 11735607_a_at) / Fold change (Aza/veh), FGFR1OP (ProbeSet 11751329_s_at) / Fold change (ACY-1035/veh), FGFR1OP (ProbeSet 11751329_s_at) / Fold change (Aza/veh), VPS36 (ProbeSet 11739960_a_at) / Fold change (ACY-1035/veh), VPS36 (ProbeSet 11739960_a_at) / RFU SYPL1 (11715823_x_at) / Fold change /veh SYPL1 (11715823_x_at) / RFU IGFBP7 (11715501_s_at) / Fold change /veh IGFBP7 (11715501_s_at) / RFU REEP3 (11722064_at) / Fold change /veh REEP3 (11722064_at) / RFU IGLL1 (11728026_x_at) / Fold change /veh IGLL1 (11728026_x_at): dose or concentration left out as unconfirmed
# Settings: MV-4-11 cells, 48 hours
structure (smiles),measurement,value
Nc1ccc(-c2cccs2)cc1NC(=O)c1ccc2c(c1)cc(C1CC1)n2CCN1CCOCC1 [ACY-1035],RFU ISYNA1 (11749810_s_at),21.49 RFU

# Reference: paper PMC5218480 (PLoS ONE, 2017)
